Calls of active or inactive are those of the source. The calls are words filed in the database; no cut-off is given here.
Tested on: Human immunodeficiency virus 1
Experiment: Tested for activity against HIV in cell culture at concentration of 100 ug/mL; NA denotes no activity
Type: functional, organism-based

Row | SMILES | Activity
1 | Cc1cn(N2CC(O)C(CO)C2)c(=O)[nH]c1=O (stereo not drawn) | inactive
2 | Cc1cn(N2CC(F)C(CO)C2)c(=O)[nH]c1=O (stereo not drawn) | inactive
3 | Cc1cn(N2CC(CO)C(N=[N+]=[N-])C2)c(=O)[nH]c1=O (stereo not drawn) | inactive

Source: ChEMBL document CHEMBL1125990, “Synthesis of novel 1-nitrogen replaced carbocyclic thymidine analogs as potential anti aids agents” (Bioorg Med Chem Lett, 1991)
